Reference: PubChem BioAssay AID1963849 (Molecular Pharmacology Branch, DTP, NCI, 2024)

Test system: 299254-011-R-J1-PDC complex spheroid viability
Experiment: Anticancer human tumor 299254-011-R-J1-PDC patient-derived melanoma cell line growth inhibition [POLQ]
Details: for IC50: curve of first compound; for viability, T/C: stronger effect = lower value
How it was run: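 PDC + HUVEC + MSC complex spheroids; POLQ inhibitors ± partner drugs; top conc. at/near clinical Cmax, else 10 microM (SN-38 1 microM), half-log dilutions; 37 degrees C, 5% CO2.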

[1] = second compound 0.0316 µM, first compound 0.0316 µM
[2] = second compound 0.0316 µM, first compound 0.1 µM
[3] = second compound 0.0316 µM, first compound 0.316 µM
[4] = second compound 0.0316 µM, first compound 1 µM
[5] = second compound 0.1 µM, first compound 0.0316 µM
[6] = second compound 0.1 µM, first compound 0.1 µM
[7] = second compound 0.1 µM, first compound 0.316 µM
[8] = second compound 0.1 µM, first compound 1 µM
[9] = second compound 0.316 µM, first compound 0.0316 µM
[10] = second compound 0.316 µM, first compound 0.1 µM
[11] = second compound 0.316 µM, first compound 0.316 µM
[12] = second compound 0.316 µM, first compound 1 µM
[13] = second compound 1 µM, first compound 0.0316 µM
[14] = second compound 1 µM, first compound 0.1 µM
[15] = second compound 1 µM, first compound 0.316 µM
[16] = second compound 1 µM, first compound 1 µM
[17] = second compound 3.16 µM, first compound 0.0316 µM
[18] = second compound 3.16 µM, first compound 0.1 µM
[19] = second compound 3.16 µM, first compound 0.316 µM
[20] = second compound 3.16 µM, first compound 1 µM
[21] = second compound 10 µM, first compound 0.0316 µM
[22] = second compound 10 µM, first compound 0.1 µM
[23] = second compound 10 µM, first compound 0.316 µM
[24] = second compound 10 µM, first compound 1 µM
[25] = second compound 0.0316 µM, first compound 3.16 µM
[26] = second compound 0.0316 µM, first compound 10 µM
[27] = second compound 0.1 µM, first compound 3.16 µM
[28] = second compound 0.1 µM, first compound 10 µM
[29] = second compound 0.316 µM, first compound 3.16 µM
[30] = second compound 0.316 µM, first compound 10 µM
[31] = second compound 1 µM, first compound 3.16 µM
[32] = second compound 1 µM, first compound 10 µM
[33] = second compound 3.16 µM, first compound 3.16 µM
[34] = second compound 3.16 µM, first compound 10 µM
[35] = second compound 10 µM, first compound 3.16 µM
[36] = second compound 10 µM, first compound 10 µM
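Also: spheroids exposed to drugs for one week before measurement.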
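For viability, T/C in this document: percent viability relative to DMSO vehicle control taken as 100%.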

## C=CCn1c(=O)c2cnc(Nc3ccc(N4CCN(C)CC4)cc3)nc2n1-c1cccc(C(C)(C)O)n1 + Nc1ccc(C#CCN(C(=O)Cc2ncc(C(F)(F)F)cc2C(F)(F)F)c2ccc(F)cc2)nn1
Second compound 0.0316 µM
  IC50: > 1 µM
Second compound 0.1 µM
  IC50: > 1 µM
Second compound 0.316 µM
  IC50: > 1 µM
Second compound 1 µM
  IC50: > 1 µM
Second compound 3.16 µM
  IC50: > 1 µM
Second compound 10 µM
  IC50: > 1 µM
Second compound 0.0316 µM, first compound 0.00316 µM
  viability, T/C: 104%
Second compound 0.0316 µM, first compound 0.01 µM
  viability, T/C: 85%
[1]
  viability, T/C: 98.5%
[2]
  viability, T/C: 105%
[3]
  viability, T/C: 95.8%
[4]
  viability, T/C: 68.3%
Second compound 0.1 µM, first compound 0.00316 µM
  viability, T/C: 101%
Second compound 0.1 µM, first compound 0.01 µM
  viability, T/C: 93.1%
[5]
  viability, T/C: 94.9%
[6]
  viability, T/C: 102%
[7]
  viability, T/C: 104%
[8]
  viability, T/C: 69.9%
Second compound 0.316 µM, first compound 0.00316 µM
  viability, T/C: 104%
Second compound 0.316 µM, first compound 0.01 µM
  viability, T/C: 101%
[9]
  viability, T/C: 93.4%
[10]
  viability, T/C: 93.4%
[11]
  viability, T/C: 104%
[12]
  viability, T/C: 74.6%
Second compound 1 µM, first compound 0.00316 µM
  viability, T/C: 102%
Second compound 1 µM, first compound 0.01 µM
  viability, T/C: 120%
[13]
  viability, T/C: 107%
[14]
  viability, T/C: 97.2%
[15]
  viability, T/C: 94.4%
[16]
  viability, T/C: 58%
Second compound 3.16 µM, first compound 0.00316 µM
  viability, T/C: 95.5%
Second compound 3.16 µM, first compound 0.01 µM
  viability, T/C: 95.5%
[17]
  viability, T/C: 95.7%
[18]
  viability, T/C: 95.3%
[19]
  viability, T/C: 101%
[20]
  viability, T/C: 72.5%
Second compound 10 µM, first compound 0.00316 µM
  viability, T/C: 103%
Second compound 10 µM, first compound 0.01 µM
  viability, T/C: 92%
[21]
  viability, T/C: 88.6%
[22]
  viability, T/C: 87.5%
[23]
  viability, T/C: 77.3%
[24]
  viability, T/C: 58.9%

## CC1COCCN1c1cc(-c2ccnn2C)c2ccnc(-c3ccn[nH]3)c2n1 (stereo unspecified) + Nc1ccc(C#CCN(C(=O)Cc2ncc(C(F)(F)F)cc2C(F)(F)F)c2ccc(F)cc2)nn1
Second compound 0.0316 µM
  IC50: 0.311 µM
Second compound 0.1 µM
  IC50: 0.226 µM
Second compound 0.316 µM
  IC50: 0.295 µM
Second compound 1 µM
  IC50: 0.264 µM
Second compound 3.16 µM
  IC50: 0.179 µM
Second compound 10 µM
  IC50: 0.16 µM
[1]
  viability, T/C: 87.8%
[2]
  viability, T/C: 80.3%
[3]
  viability, T/C: 43.7%
[4]
  viability, T/C: 36.3%
[25]
  viability, T/C: 22.3%
[26]
  viability, T/C: 18.7%
[5]
  viability, T/C: 102%
[6]
  viability, T/C: 70.9%
[7]
  viability, T/C: 41.9%
[8]
  viability, T/C: 27.8%
[27]
  viability, T/C: 23.2%
[28]
  viability, T/C: 25.4%
[9]
  viability, T/C: 102%
[10]
  viability, T/C: 70.5%
[11]
  viability, T/C: 50.4%
[12]
  viability, T/C: 31.2%
[29]
  viability, T/C: 28.1%
[30]
  viability, T/C: 19.5%
[13]
  viability, T/C: 88.7%
[14]
  viability, T/C: 68.5%
[15]
  viability, T/C: 43.8%
[16]
  viability, T/C: 33.8%
[31]
  viability, T/C: 31.2%
[32]
  viability, T/C: 19.6%
[17]
  viability, T/C: 84.7%
[18]
  viability, T/C: 62.6%
[19]
  viability, T/C: 36.3%
[20]
  viability, T/C: 32.4%
[33]
  viability, T/C: 19.9%
[34]
  viability, T/C: 25.4%
[21]
  viability, T/C: 82.5%
[22]
  viability, T/C: 54.6%
[23]
  viability, T/C: 42.6%
[24]
  viability, T/C: 33.2%
[35]
  viability, T/C: 20.7%
[36]
  viability, T/C: 25.2%

## CCCS(=O)(=O)Nc1ccc(F)c(C(=O)c2c[nH]c3ncc(-c4ccc(Cl)cc4)cc23)c1F + Nc1ccc(C#CCN(C(=O)Cc2ncc(C(F)(F)F)cc2C(F)(F)F)c2ccc(F)cc2)nn1
Second compound 0.0316 µM
  IC50: 9.62 µM
Second compound 0.1 µM
  IC50: 9.01 µM
Second compound 0.316 µM
  IC50: 9.95 µM
Second compound 1 µM
  IC50: 8.98 µM
Second compound 3.16 µM
  IC50: > 10 µM
Second compound 10 µM
  IC50: > 10 µM
[1]
  viability, T/C: 109%
[2]
  viability, T/C: 128%
[3]
  viability, T/C: 122%
[4]
  viability, T/C: 120%
[25]
  viability, T/C: 108%
[26]
  viability, T/C: 47.8%
[5]
  viability, T/C: 92.7%
[6]
  viability, T/C: 117%
[7]
  viability, T/C: 119%
[8]
  viability, T/C: 110%
[27]
  viability, T/C: 104%
[28]
  viability, T/C: 44.6%
[9]
  viability, T/C: 97.5%
[10]
  viability, T/C: 93.5%
[11]
  viability, T/C: 112%
[12]
  viability, T/C: 111%
[29]
  viability, T/C: 129%
[30]
  viability, T/C: 49.7%
[13]
  viability, T/C: 97.3%
[14]
  viability, T/C: 99.2%
[15]
  viability, T/C: 106%
[16]
  viability, T/C: 121%
[31]
  viability, T/C: 122%
[32]
  viability, T/C: 43.8%
[17]
  viability, T/C: 108%
[18]
  viability, T/C: 140%
[19]
  viability, T/C: 140%
[20]
  viability, T/C: 101%
[33]
  viability, T/C: 106%
[34]
  viability, T/C: 50.7%
[21]
  viability, T/C: 94.8%
[22]
  viability, T/C: 98.6%
[23]
  viability, T/C: 109%
[24]
  viability, T/C: 102%
[35]
  viability, T/C: 98.5%
[36]
  viability, T/C: 57%
